Species: Rattus norvegicus
Assay: Effective concentration for calcium mobilization (Ca 2+ release) in rat brain microsomes
Assay type: functional

In the case of `N=c1c2ncn3c2ncn1[C@@H]1O[C@H](COP(=O)(O)OP(=O)(O)OC[C@H]2O[C@@H]3[C@H](OP(=O)(O)O)[C@@H]2O)[C@@H](O)[C@H]1O`, the EC50 is reported as 9.2 µM.
With `N=c1c2ncn3c2ncn1[C@@H]1O[C@H](COP(=O)(O)OP(=O)(O)OC[C@H]2OC3[C@H](O)[C@@H]2O)[C@@H](O)[C@H]1O` the EC50 was 22 µM.
In the case of `O=P(O)(O)O[C@@H]1[C@H](O)[C@H](O)[C@@H](OP(=O)(O)O)[C@H](OP(=O)(O)O)[C@H]1O` [INS(1,4,5)P3], the EC50 is reported as 0.1 µM.

Reference: ChEMBL document CHEMBL1128894, “Enzymatic cyclization of nicotinamide adenine dinucleotide phosphate (NADP)” (Bioorg Med Chem Lett, 1995)
